As usually defined, the IC90 is the concentration needed for an effect of 90%.

Structures can show the parent of a compound that is named as a salt.

Here are results for 22 compounds from patent US20230012368A1 (Hoffmann-La Roche Inc., priority 2018, published 2023).

One experiment relates to Acinetobacter baumannii ATCC 17978. The experiment can be described thus: Antimicrobial susceptibility testing: 90% growth inhibitory concentration (IC90) determination. The class given is cell-based. The settings on record: 90% growth inhibitory concentration; Acinetobacter baumannii ATCC17978; Iso-Sensitest broth, OD 600 nm over 16h; read-out: ATCC17978 IC90. The method in brief: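 Compounds serially twofold diluted (e.g. 50 to 0.097 μM final) in Iso-Sensitest broth, inoculated at ~5×10^(5) CFU/ml, incubated at 35±2° C. OD600 read every 20 minutes over 16h. IC90 taken as concentration inhibiting 90% of growth during logarithmic phase.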
“tert-butyl 3-[[[4-[[3- [4- (difluoromethoxy) phenyl]imidazo[1,2- a]pyrazin-8- yl]amino]-2-methyl- benzoyl]amino] methyl] pyrrolidine-1- carboxylate [Example 47]”: the IC90 came to 1700 nM.

Staying with this experiment, now noted: Acinetobacter baumannii, ATCC17978, 16 h, 90% growth inhibitory concentration; Acinetobacter baumannii ATCC17978; Iso-Sensitest broth, OD 600 nm over 16h; read-out: ATCC17978 IC90.
For `CCc1cc(Nc2nccn3c(-c4ccc(Oc5ncccn5)c(F)c4F)cnc23)ccc1C(=O)NCC1CCN(CC2CCNC2)CC1` (stereo not shown) [Example 549, 4-((3-(2,3-difluoro-4-(pyrimidin-2-yloxy)phenyl)imidazo[1,2-a]pyrazin-8-yl)amino)-2-ethyl-N-((1-(pyrrolidin-3-ylmethyl)piperidin-4-yl)methyl)benzamide formate], the IC90 came out at 490 nM. Same read-out and setting: the same measure for `CCc1cc(Nc2nccn3c(-c4ccc(OC(F)F)c(F)c4F)cnc23)ccc1C(=O)NCC1CCNC1` (stereo not shown) [Example 550, 4-[[3-[4-(difluoromethoxy)-2,3-difluorophenyl]imidazo[1,2-a]pyrazin-8-yl]amino]-2-ethyl-N-(pyrrolidin-3-ylmethyl)benzamide; formic acid]: 150 nM.

As for `CCc1cc(Nc2nccn3c(-c4ccc(OC)c(F)c4F)cnc23)ccc1C(=O)NCC1CCN(CC(=O)NCC2CCNC2)CC1` (stereo not shown) [Example 551, 4-((3-(2,3-difluoro-4-methoxyphenyl)imidazo[1,2-a]pyrazin-8-yl)amino)-2-ethyl-N-((1-(2-oxo-2-((pyrrolidin-3-ylmethyl)amino)ethyl)piperi-din-4-yl)methyl)benzamide bis(2,2,2-trifluoroacetate)], the concentration for an effect of 90% (IC90) amounted to 77 nM.

With `CCc1cc(Nc2nccn3c(-c4ccc(OC)c(F)c4F)cnc23)ccc1C(=O)NCC1CCN(Cc2cccnc2)CC1` [Example 554, 4-[[3-(2,3-difluoro-4-methoxy-phenyl)imidazo[1,2-a]pyrazin-8-yl]amino]-2-ethyl-N-[[1-(3-pyridylmethyl)-4-piperidyl]methyl]benzamide], the 90% effect concentration (IC90) is 170 nM.

Regarding `CCc1cc(Nc2nccn3c(-c4ccc(OC)c(F)c4F)cnc23)ccc1C(=O)NCc1cnn(C)c1` [Example 555, 4-[[3-(2,3-difluoro-4-methoxy-phenyl)imidazo[1,2-a]pyrazin-8-yl]amino]-2-ethyl-N-[(1-methylpyrazol-4-yl)methyl]benzamide], the IC90 came to 150 nM.

Take `CCc1cc(Nc2nccn3c(-c4ccc(OC)c(F)c4F)cnc23)ccc1C(=O)NCC1CCN(CCC2CCCN2)CC1` (stereo not shown) [Example 556, 4-[[3-(2,3-difluoro-4-methoxy-phenyl)imidazo[1,2-a]pyrazin-8-yl]amino]-2-ethyl-N-[[1-(2-pyrrolidin-2-ylethyl)-4-piperidyl]methyl]benzamide]: the concentration for an effect of 90% (IC90) is 310 nM. Take `CCc1cc(Nc2nccn3c(-c4ccc(Oc5cnn[nH]5)c(F)c4F)cnc23)ccc1C(=O)NCC1CCN(CC2CCNC2)CC1` (stereo not shown) [Example 557, 4-[[3-[2,3-difluoro-4-(1#H!- triazol-5-yloxy)phenyl]imidazo[1,2-a]pyrazin-8-yl]amino]-2-ethyl-#N!-[[1-(pyrrolidin-3-ylmethyl)piperidin-4-yl]methyl]benzamide;formic acid]: the 90% effect concentration (IC90) was 480 nM. As to `CCc1cc(Nc2nccn3c(-c4ccc(Oc5ncccn5)c(F)c4F)cnc23)ccc1C(=O)NCCCCCN` [Example 558, N-(5-aminopentyl)-4-((3-(2,3-difluoro-4-(pyrimidin-2-yloxy)phenyl)imidazo[1,2-a]pyrazin-8-yl)amino)-2-ethylbenzamide formate], the 90% effect concentration (IC90) was 190 nM. Take `CCc1cc(Nc2nccn3c(-c4ccc(OC)c(F)c4F)cnc23)ccc1C(=O)NCC1CCN(CC(=O)O)CC1` [Example 559, 2-[4-[[[4-[[3-(2,3-difluoro-4-methoxy-phenyl)imidazo[1,2-a]pyrazin-8-yl]amino]-2-ethyl-benzoyl]amino]methyl]-1-piperidyl]acetic acid]: the 90% effect concentration (IC90) came out at 270 nM.

`CCc1cc(Nc2nccn3c(-c4ccc(OC)c(F)c4F)cnc23)ccc1C(=O)NCc1ccncc1` [Example 560, 4-((3-(2,3-difluoro-4-methoxyphenyl)imidazo[1,2-a]pyrazin-8-yl)amino)-2-ethyl-N-(pyridin-4-ylmethyl)benzamide formate]: the IC90 worked out at 80 nM. As for `CCc1cc(Nc2nccn3c(-c4ccc(OC)c(F)c4F)cnc23)ccc1C(=O)NCCN1CCC(C(N)=O)C1` (stereo not shown) [Example 561, 1-[2-[[4-[[3-(2,3-difluoro-4-methoxy-phenyl)imidazo[1,2-a]pyrazin-8-yl]amino]-2-ethyl-benzoyl]amino]ethyl]pyrroli-dine-3-carboxamide], the 90% effect concentration (IC90) was determined as 190 nM.

Turning to `CCc1cc(Nc2nccn3c(-c4ccc(OC)c(F)c4F)cnc23)ccc1C(=O)NCC1CCN(C(C)(C)C(=O)O)CC1` [Example 562, 2-(4-((4-((3-(2,3-difluoro-4-methoxyphenyl)imidazo[1,2-a]pyrazin-8-yl)amino)-2-ethylbenzamido)methyl)piper-idin-1-yl)-2-methylpropanoic acid compound with formic acid], the 90% effect concentration (IC90) was 320 nM. On the same count and under the same terms, the same measure for `CCc1cc(Nc2nccn3c(-c4ccc(Oc5ccncn5)c(F)c4F)cnc23)ccc1C(=O)NCCCNC(=O)CCCNCCCN` [Example 563, N-[3-[4-(3-aminopropylamino)butanoyl-amino]propyl]-4-[[3-(2,3-difluoro-4-pyrimidin-4-yloxy-phenyl)imidazo[1,2-a]pyrazin-8-yl]amino]-2-ethyl-benzamide; formic acid]: 190 nM; for `CCc1cc(Nc2nccn3c(-c4ccc(OC)c(F)c4F)cnc23)ccc1C(=O)NCCNC(=O)CCCNCCCN` [Example 564, N-(2-(4-((3-aminopropyl)amino)butanami-do)ethyl)-4-((3-(2,3-difluoro-4-methoxyphenyl)imidazo[1,2-a]pyrazin-8-yl)amino)-2-ethylbenzamide trihydrochloride]: 500 nM. As to `CCc1cc(Nc2nccn3c(-c4ccc(Oc5ccncn5)c(F)c4F)cnc23)ccc1C(=O)NCCCNC(=O)NCCNCCCN` [Example 565, N-[3-[2-(3-aminopropylamino)ethylcar-bamoylamino]propyl]-4-[[3-(2,3-difluoro-4-pyrimidin-4-yloxy-phenyl)imidazo[1,2-a]pyrazin-8-yl]amino]-2-ethyl-benzamide; formic acid], the concentration for an effect of 90% (IC90) turned out to be 300 nM. The same measure, in the same setting: the same measure for `CCc1cc(Nc2nccn3c(-c4ccc(OC)c(F)c4F)cnc23)ccc1C(=O)N[C@H](C)C(=O)NCCNC` [Example 566, 4-[[3-(2,3-difluoro-4-methoxy-phenyl)imidazo[1,2-a]pyrazin-8-yl]amino]-2-ethyl-N-[(1R)-1-methyl-2-[2-(methylamino)ethylamino]-2-oxo-ethyl]benzamide]: 950 nM; for `CCc1cc(Nc2nccn3c(-c4ccc(OC)c(F)c4F)cnc23)ccc1C(=O)N[C@@H](C)C(=O)NCCNC` [Example 567, 4-[[3-(2,3-difluoro-4-methoxy-phenyl)imidazo[1,2-a]pyrazin-8-yl]amino]-2-ethyl-N-[(1S)-1-methyl-2-[2-(methylamino)ethylamino]-2-oxo-ethyl]benzamide]: 650 nM; for `CNCCCN1CCc2cc(Nc3nccn4c(-c5ccc(OC)c(F)c5F)cnc34)ccc2C1=O` [Example 568, 6-[[3-(2,3-difluoro-4-methoxy-phenyl)imidazo[1,2-a]pyrazin-8-yl]amino]-2-[3-(methylamino)propyl]-3,4-dihydroisoquinolin-1-one]: 390 nM. Regarding `CCc1cc(Nc2nccn3c(-c4ccc(OC)c(F)c4F)cnc23)ccc1C(=O)NCc1cnc(N)s1` [Example 569, N-((2-aminothiazol-5-yl)methyl)-4-((3-(2,3-difluoro-4-methoxyphenyl)imidazo[1,2-a]pyrazin-8-yl)amino)-2-ethylbenzamide], the concentration for an effect of 90% (IC90) amounted to 84 nM. On to `COc1ccc(-c2cnc3c(Nc4ccc(C(=O)N5CCC(C(=O)NCC6CN(C)C6)CC5)c(C)c4)nccn23)cc1F` [REF 114, 1-(4-((3-(3-fluoro-4-methoxyphenyl)imidazo [1,2-a]pyrazin-8-yl)amino)-2-methylbenzoyl)-N-((1-methylazetidin-3-yl)methyl)piperidine-4-carboxamide], for which the IC90 was 470 nM. As for `CCN(C(=O)NCCCN(C)C)C(=O)c1ccc(Nc2nccn3c(-c4ccc(OCC#N)c(F)c4F)cnc23)cc1Cl` [REF 149, 2-chloro-4-[[3-[4-(cyanomethoxy)-2,3-difluoro-phenyl]imidazo[1,2-a]pyrazin-8-yl]amino]-N-[3-(dimethylamino)propylcarbamoyl]-N-ethyl-benzamide], the IC90 is 450 nM.
